Reference: PubChem BioAssay AID602210 (Sanford-Burnham Center for Chemical Genomics, 2012)
Active and inactive are the calls of the source. The rule behind the calls is not given here.

Assay: modulators of 2-deoxyglucose-induced H9c2 death, dose response, myocardial damage modulator project, cell-based, ATPlite luminescence, rat, set 2 (AID 602210)
Settings: H9c2 rat cardiomyoblasts, 2-deoxyglucose-induced death, 2 h
In the case of O=C(c1cc2nc(-c3ccccc3)cc(-c3ccccc3)n2n1)N1CCN(C(=O)c2ccco2)CC1, the IC50 is reported as 10.3 µM (inactive).
With CCOC(=O)C1CCN(c2cc3c(cc2NC(=O)c2ccc(F)cc2)n(C)c(=O)n3C)CC1 the IC50 was 28.5 µM (inactive).
For CC(C)(C)C(=O)Nc1ccc(C(=O)N/N=C/c2ccccc2OC(=O)c2ccccc2)cc1, the IC50 was > 79 µM (inactive).
With COc1cccc(C(=O)Nc2cc(C)c3c(=O)oc4ccccc4c3n2)c1 the IC50 was > 79 µM (inactive).
With CCOC(=O)C1=C(C)NC(C)=C(C(=O)OCC)C1C(=O)OCC(=O)NC1CCCCC1 the IC50 was 7.05 µM.
With COc1cccc(NC(=O)c2oc3ccc(S(=O)(=O)N4CCOCC4)cc3c2C)c1 the IC50 was 19.5 µM (inactive).
COc1ccc(-n2nc(C(=O)NCC(=O)Nc3cc(OC)c(OC)c(OC)c3)c3ccccc3c2=O)cc1Cl showed an IC50 of 7.79 µM.
In the case of Cc1cc(NC(=O)c2cccs2)cc(-c2nc3ncccc3o2)c1O, the IC50 is reported as > 79 µM (inactive).
In the case of CCOC(=O)c1cc2c(=O)n3cccc(C)c3nc2n(CCCOC)c1=NC(=O)c1cccnc1, the IC50 is reported as 11.3 µM (inactive).
In the case of COc1cc(/C=c2\s/c(=C(/C#N)C(=O)N3CCCC3)n(-c3ccccc3)c2=O)ccc1O, the IC50 is reported as > 79 µM (inactive).
In the case of CCOC(=O)C1=C(COC(=O)c2cc(OC)c(OC)c(OC)c2)NC(=O)NC1C (stereo not drawn), the IC50 is reported as 42.8 µM (inactive).
In the case of COCCN1Cc2cccc(C(=O)Nc3cccc(-c4nc5ccccc5[nH]4)c3)c2C1=O, the IC50 is reported as 3.71 µM.
In the case of COc1cc(C(=O)Nc2ccc(NC(=O)c3ccco3)nc2)cc(OC)c1OC, the IC50 is reported as 38.5 µM (inactive).
With Cc1c(C(=O)NCC2COc3ccccc3O2)oc2ccc(S(=O)(=O)N3CCOCC3)cc12 (stereo not drawn) the IC50 was 5.65 µM.
In the case of COc1ccc(Nc2nnc(-c3ccc(O)cc3)c3ccccc23)cc1C(N)=O, the IC50 is reported as > 79 µM (inactive).
In the case of CCOc1ccc2ccccc2c1C(=O)N[C@@H]1C(=O)N2[C@@H]1SC(C)(C)[C@@H]2C(=O)O, the IC50 is reported as 36.1 µM (inactive).
Cc1ccc(-c2csc(N3CCC[C@@H]3C(=O)NCCn3c(-c4ccncc4)nc4ccccc43)n2)cc1 showed an IC50 of 8.85 µM.
For CC(OC(=O)c1cc(-c2cccnc2)nc2ccccc12)C(=O)Nc1ccc2ccccc2c1 (stereo not drawn), the IC50 was 14.3 µM (inactive).
For CCC(=O)N1CCN(c2ccccc2NC(=O)c2ccc(-c3cccc([N+](=O)[O-])c3)o2)CC1, the IC50 was > 79 µM (inactive).
With O=CNc1cc(-c2ccc(C(=O)NC3CC3)cc2)cn2c(-c3ccccc3)cnc12 the IC50 was 16.1 µM (inactive).
For COc1ccccc1OCC(=O)Nc1cccc(-c2nnc(-c3ccco3)o2)c1, the IC50 was > 79 µM (inactive).
With O=C(C(=O)N(Cc1ccccc1)Cc1ccccc1)c1c(-c2ccccc2)[nH]c2ccccc12 the IC50 was 1.88 µM.
For COC(=O)c1cc2ccc(OC)cc2c2cc(OC)c(OC)cc12, the IC50 was > 79 µM (inactive).
For O=C(O)c1ccc2c(c1)S(=O)(=O)c1cc(N3CCN(c4cnccn4)CC3)ccc1C2=O, the IC50 was 18.6 µM (inactive).
In the case of COc1ccc(-n2cc(-c3ccccc3)c3c(N4CCOCC4)ncnc32)cc1, the IC50 is reported as 6.04 µM.
For Cn1c(=O)n(CCc2ccccc2)c(=O)c2c1nc1n2CCCN1Cc1ccccc1, the IC50 was 14.5 µM (inactive).
With Cc1ccc(Cn2c(CCNc3nc(-c4ccc(Cl)c([N+](=O)[O-])c4)cs3)nc3cc(C(=O)NCCCO)ccc32)cc1 the IC50 was > 79 µM (inactive).
In the case of CCC(=O)Oc1cccc(C(=O)Nc2ccc(-c3nnc(-c4ccco4)o3)cc2)c1, the IC50 is reported as > 79 µM (inactive).
With COc1ccc(/C=C/C(=O)c2ccccc2O)cc1CN1CCOCC1 the IC50 was 25.7 µM (inactive).
In the case of O=C(NCC(=O)N(Cc1cccs1)C(C(=O)NC1CCCCC1)c1ccco1)c1ccco1 (stereo not drawn), the IC50 is reported as 18.5 µM (inactive).
In the case of CCCCNC(=O)c1cn(-c2ccc(OCC)cc2)c(=O)c2cc(OC)c(OC)cc12, the IC50 is reported as 39.2 µM (inactive).
With COc1cccc(C(=O)CSc2nnc(-c3cc(OC)c(OC)c(OC)c3)o2)c1 the IC50 was > 79 µM (inactive).
Compound CCOc1ccc(C(C(=O)NC2CCCC2)N(C(=O)c2snc(C(N)=O)c2N)c2cccc(O)c2)cc1 (stereo not drawn) has an IC50 of 6.74 µM.
With COC(=O)c1ccccc1NC(=O)/C=C/c1cc(OC)c(OC)c(OC)c1 the IC50 was > 79 µM (inactive).
With O=C(c1ccco1)N1CCN(C(=O)c2cc(-c3ccncc3)nc3ccc(Br)cc23)CC1 the IC50 was 25.8 µM (inactive).
Compound COc1ccc(CCNc2nc(-c3cccnc3)nc3ccccc23)cc1OC has an IC50 of 8.24 µM.
For C=CC[C@@H](CC(=O)NCCO)C(=O)NC[C@H](OC(=O)[C@@H](CC=C)Cc1ccc(F)cc1)c1ccccc1, the IC50 was 11.9 µM (inactive).
With Nc1c(C(=O)NC2CC2)c2nc3ccccc3nc2n1-c1ccc2c(c1)OCO2 the IC50 was > 79 µM (inactive).
In the case of CCOc1ccccc1Nc1nnc(SCc2nnc(-c3cc(OC)c(OC)c(OC)c3)o2)s1, the IC50 is reported as 12.8 µM (inactive).
In the case of O=C(N/N=C/c1ccccn1)c1ccc(NC(=O)c2cccc([N+](=O)[O-])c2)cc1, the IC50 is reported as > 79 µM (inactive).
Work on O=C(CNC(=O)c1nc[nH]c1C(=O)NCc1ccccc1)OCc1ccccc1 yielded an IC50 of 5.21 µM.
With CCN(CC)c1ccc(C2C(C(=O)OC(C)C)C(=O)CC(C)(O)C2C(=O)OC(C)C)cc1 (stereo not drawn) the IC50 was 20.5 µM (inactive).
O=C1OCCN1C(=O)[C@H]1[C@H](c2ccc([N+](=O)[O-])cc2)C(c2ccc(F)cc2)=NN1c1ccc(Br)cc1 gave an IC50 of 8.93 µM.
With O=C(COc1cccc(NC(=O)c2cccc([N+](=O)[O-])c2)c1)c1ccc(F)cc1 the IC50 was 11.2 µM (inactive).
In the case of NC(=O)c1ccc(Nc2nnc(-c3ccc(O)cc3)c3ccccc23)cc1, the IC50 is reported as 34.2 µM (inactive).
For Cc1ccc(NC(=O)c2cc(=O)c3ccccc3o2)cc1S(=O)(=O)N1CCOCC1, the IC50 was 29.6 µM (inactive).
With CCOC(=O)C1CCN(C(c2cc3c(C)ccc(C)c3[nH]c2=O)c2nnnn2C2CCCCC2)CC1 (stereo not drawn) the IC50 was 19.2 µM (inactive).
With COc1ccc(-n2c(/C=C/c3ccc(O)cc3)nc3ccccc3c2=O)cc1 the IC50 was 18.5 µM (inactive).
In the case of COc1cc(NC(=O)c2ccc(-c3cn[nH]c3)c3ccoc23)cc(OC)c1OC, the IC50 is reported as 15.4 µM (inactive).
In the case of Cc1cc(C)c2c(N)c(C(=O)N/N=C/c3cccnc3)sc2n1, the IC50 is reported as 25.5 µM (inactive).
In the case of Cc1nnc2ccc(-c3cccc(NC(=O)c4ccc(Cl)nc4)c3)nn12, the IC50 is reported as 45.9 µM (inactive).
In the case of Cn1c(C(=O)NCCc2ccsc2)cc2c(=O)n(C)c3ccccc3c21, the IC50 is reported as 11.3 µM (inactive).
With CCOC(=O)c1cc2c(=O)n3ccccc3nc2n(Cc2ccco2)c1=NC(=O)c1cccnc1 the IC50 was 23 µM (inactive).
For COc1cc(C(=O)N/N=C/c2ccc(OC(=O)c3ccccc3Cl)cc2)ccc1O, the IC50 was > 79 µM (inactive).
In the case of CC/C(C)=N\N=C\c1c(O)n(CC)c2cc(C3=NNC(=O)CC3)ccc12, the IC50 is reported as > 79 µM (inactive).
With COc1cccc(-c2nn(-c3ccccc3)cc2C(=O)Nc2nccs2)c1 the IC50 was 16.3 µM (inactive).
With CC(=O)Nc1cccc(-c2cc(NC=O)c3ncc(-c4cccc(C(C)=O)c4)n3c2)c1 the IC50 was 11 µM (inactive).
With CC(C)(C)C(=O)Nc1cccc(-c2nnc(-c3cccc(NC(=O)C(C)(C)C)c3)o2)c1 the IC50 was 10.7 µM (inactive).
With COc1cccc(/C=N/NC(=O)c2ccncc2)c1OC(=O)c1ccc(Br)cc1 the IC50 was 28.3 µM (inactive).
For O=C(Nc1ccc2c(c1)OCO2)c1cnn2c(C(F)(F)F)cc(-c3ccco3)nc12, the IC50 was > 79 µM (inactive).
For N#C/C(=C\c1cn(-c2ccccc2)nc1-c1cccnc1)c1nnc2n1CCCCC2, the IC50 was 30.2 µM (inactive).
For CC(=O)Nc1cccc(NC(=O)c2cc(-c3cccnc3)nc3ccc(Br)cc23)c1, the IC50 was > 79 µM (inactive).
With NC(=O)COc1ccc2oc(=O)cc(-c3cc4ccccc4o3)c2c1 the IC50 was 17.2 µM (inactive).
